Test results as given in patent US7304129B2 (Imperial Innovations Limited, priority 2000, dated 2007).
Several values for one entry are separate records, joined by “and”; a condition that tells them apart may be missing. Equal values may be shown once. Entries after “also recorded” stand apart in the source; their conditions may differ.

Legend:
[1] = system: rat cerebellar granule neurons cultured on monolayers of NIH 3T3 fibroblasts; test: in vitro neurite outgrowth co-culture assay (axon regeneration); type: cell-based
Method: An example of such an assay is a co-culture assay in which neurons are cultured on top of cellular monolayers for 16 hours, before being fixed and stained with a neuron-specific antibody. The mean length of the longest neurite per cell can then be determined by fluorescence microscopy using an appropriate image analysis programme. The neurons may be, for example, (in this case cerebellar granule cell neurons, hippocampal, dorsal root ganglion, olfactory, motor or dopaminergic neurons. The cellular monolayer is, for example NIH 3T3 fibroblasts.
Monolayers of NIH 3T3 fibroblasts were established by seeding 80,000 cells per well in Lab-Tek 8-chamber slides previously coated sequentially with poly-L-lysine and fibronectin and culturing them overnight in DMEM+10% FCS growth medium.
Cerebellum was dissected from post-natal day 2-4 rat pups and the meninges and extraneous tissue discarded. Cerebellum was chopped into small pieces and trypsinised for 10 minutes at 37° C. Trypsin was neutralised using growth medium and the cells pelletted at 1000×g for 7 minutes. Cerebellar neurons were then resuspended in SATO growth medium containing 2% FCS, counted, and plated on top of the fibroblast monolayer at a density of 1,500 neurons per well. After 16 hours, cocultures were fixed with 4% para-formaldehyde and stained with an anti-GAP43 neuron-specific antibody, which was a gift from Dr Graham Wilkin, Imperial College Department of Biochemistry, London, but any other neuron-specific marker can be used.
The mean neurite length of 150-200 neurons per well was determined using a fluorescent microscope and Zeiss KS300 imaging software.
Peptides A, A(d), B, C, D, E, and F were each incorporated in the SATO medium at a range of concentrations from 0 to 200 μg/ml. Nerve growth factor (NGF) and fibroblast growth factor (FGF2) were used as controls at the same range of concentrations.

[2] = system: cerebellar neurones expressing a dominant-negative form of FGF receptors; test: neurite outgrowth of cerebellar neurones from transgenic mice expressing dominant-negative FGF receptors; type: cell-based; details: neurons unable to signal through the FGF receptor; listed as Ac-DRVEPYSSTA-amide

Substance: Acetyl-DRVEPYSSTA-amide (Ac-DRVEPYSSTA-NH2) [Peptide A]
- stimulation of neurite outgrowth (in words) ([1]; agent included in coculture medium, 16 hour culture): full activity was retained
- effect on neurite outgrowth stimulated by FGF2 ([1]; peptide at low concentration (25 μM), listed as Ac-DRVEPYSSTA-amide): inhibits neurite outgrowth stimulated by FGF2
- peptide concentration giving maximal effects in neurite outgrowth assay ([1]; rat cerebellar neurons on 3T3 monolayer, 16 hours): 100-200 μg/ml and 100-200 μM
- neurite extension in response to the peptide [2]: unable to extend neurites; also recorded: not able to extend neurites
